# Assay results from patent publication US20110124634A1, “BIOACTIVE COMPOUNDS FOR TREATMENT OF CANCER AND NEURODEGENERATIVE DISEASES” (PONIARD PHARMACEUTICALS, INC., priority 2008, published 2011).
# pIC50: −log10 of the molar value.
# Tests used:
# Type in all cases: cell-based
# [1] = tested on: HSP90 client protein Her2 in SKBR-3 cells; assay: Her-2 degradation assay (Her-2 ELISA) in SKBr-3 cells; details: Homo sapiens, SK-BR-3, Table 5, series III, 18 hours
# Experimental: Most of the compounds synthesized were evaluated for their ability to induce degradation of the HSP90 client protein Her2 in SKBR-3 cells. Selected compounds were evaluated in a fluorescence polarization (FP) assay for their affinity to HSP90.
# SKBr-3 cells grown in McCoy's 5a Medium supplemented with 10% fetal bovine serum (FBS) were plated into 12-well plates at 50% confluency. Increasing concentrations of inhibitors were added 24 hours later (cells are 65-70% confluent) and incubated overnight for 18 hours. The wells were washed with 2 ml of phosphate buffered saline (PBS), and 50 ul of trypsin was added to each well. After trypsinization was complete, 150 ul of FBS was added to each well. Then 200 ul of cells were transferred to 96-well plates and plates were centrifuged at 1200 rpm for 2 minutes using a tabletop centrifuge. The cells were washed once with 250 ul PBS before being lysed with 100 ul of 50 mM Tris (pH 7.4), 0.1% NP-40 lysis buffer. Protein concentrations of clarified lysates were determined using the BCA Assay (Calbiochem) according to the manufacturer's instructions. 2 ug of each lysate was analyzed in the human sp 185 Her-2 ELISA (Bender Medsystems) according to the manufacturer's instructions. ELISA plates were read at 450 nm using a multiwell plate spectrophotometer. Background was determined by measuring the Abs 450 nm of wells with no lysate added. The background value was subtracted from all values. Absorbance 450 nm values for each inhibitor were plotted against the log 10 inhibitor concentration, and IC50 values were calculated using a nonlinear least-square curve fitting program in Prism 5.
# MCF-7 = assay: MTS assay (cytotoxicity), growth inhibition of MCF-7; details: Homo sapiens, MCF7, 120 h, Table 5, series III, 5 days, read-out: Growth Inhibition (IC50) MCF-7
# Experimental: (§1) Cells were seeded in 96-well plates at 2000 cells/well in a final culture volume of 100 ul for 24 hours before the addition of 25 ul of increasing concentrations of inhibitors that was incubated for 5 days. Viable cell number was determined using the CellTiter 96 AQueous One Solution Cell Proliferation Assay (Promega). Plates were read at 490 nm absorbance 2-4 hours after addition of the MTS reagent using a multiwell plate spectrophotometer. Background was determined by measuring the Abs 490 nm of cell culture medium and MTS in the absence of cells. The background value was subtracted from all values. Absorbance 490 nm values for each inhibitor were plotted against the log 10 inhibitor concentration, and IC50 values were calculated using a nonlinear least-square curve fitting program in Prism 5.
# HT29 = assay: MTS assay (cytotoxicity), growth inhibition of HT29; details: Homo sapiens, HT-29, 120 h, Table 5, series III, 5 days, read-out: Growth Inhibition (IC50) HT29
# Experimental: as §1
# SKBR-3 = assay: MTS assay (cytotoxicity), growth inhibition of SKBR-3; details: Homo sapiens, SK-BR-3, 120 h, Table 5, series III, 5 days, read-out: Growth Inhibition (IC50) SKBR-3
# Experimental: as §1
# BT474 = assay: MTS assay (cytotoxicity), growth inhibition of BT474; details: Homo sapiens, BT-474, 120 h, Table 5, series III, 5 days, read-out: Growth Inhibition (IC50) BT474
# Experimental: as §1
SMILES,pIC50 [1],pIC50 (MCF-7),pIC50 (HT29),pIC50 (SKBR-3),pIC50 (BT474)
"COc1c(C)cnc(CN2C(=O)/C(=C\c3[nH]cnc3C)c3c(Cl)nc(N)nc32)c1C [III-4, 2-Amino-4-chloro-7-(4-methoxy-3,5-dimethyl-pyridin-2-ylmethyl)-5-[1-(5-methyl-3H-imidazol-4-yl)-meth-(Z)-ylidene]-5,7-dihydro-pyrrolo[2,3-d]pyrimidin-6-one]",6.47,6.28,6.92,6.80,6.72
"COC(=O)c1ccc(/C=C2\C(=O)N(Cc3ncc(C)c(OC)c3C)c3nc(N)nc(Cl)c32)[nH]1 [III-5, 5-[2-Amino-4-chloro-7-(4-methoxy-3,5-dimethyl-pyridin-2-ylmethyl)-6-oxo-6,7-dihydro-pyrrolo[2,3-d]pyrimidin-(5Z)-ylidenemethyl]-1H-pyrrole-2-carboxylic acid methyl ester]",6.32,6.02,6.25,6.64,6.68
"COc1c(C)cnc(CN2C(=O)/C(=C\c3cc4c([nH]3)CCC=C4Cl)c3c(Cl)nc(N)nc32)c1C [III-7, 2-Amino-4-chloro-5-[1-(4-chloro-6,7-dihydro-1H-indol-2-yl)-meth-(Z)-ylidene]-7-(4-methoxy-3,5-dimethyl-pyridin-2-ylmethyl)-5,7-dihydro-pyrrolo[2,3-d]pyrimidin-6-one]",5.18,5.27,5.70,5.24,5.33
"COc1c(C)cnc(CN2C(=O)/C(=C\c3ccc(C(=O)C(F)(F)F)[nH]3)c3c(Cl)nc(N)nc32)c1C [III-8, 2-Amino-4-chloro-7-(4-methoxy-3,5-dimethyl-pyridin-2-ylmethyl)-5-[1-[5-(2,2,2-trifluoro-acetyl)-1H-pyrrol-2-yl]-meth-(Z)-ylidene]-5,7-dihydro-pyrrolo[2,3-d]pyrimidin-6-one]",6.82,6.09,5.88,6.82,6.33
"COc1c(C)cnc(CN2C(=O)/C(=C\c3[nH]ncc3Br)c3c(Cl)nc(N)nc32)c1C [III-10, (Z)-2-Amino-5-((4-bromo-1H-pyrazol-5-yl)methylene)-4-chloro-7-((4-methoxy-3,5-dimethylpyridin-2-yl)methyl)-5H-pyrrolo[2,3-d]pyrimidin-6(7H)-one]",6.55,5.90,6.32,6.77,6.49
"COc1c(C)cnc(CN2C(=O)/C(=C\c3cc(Br)c[nH]3)c3c(Cl)nc(N)nc32)c1C [III-11, (Z)-2-Amino-5-((4-bromo-1H-pyrrol-2-yl)methylene)-4-chloro-7-((4-methoxy-3,5-dimethylpyridin-2-yl)methyl)-5H-pyrrolo[2,3-d]pyrimidin-6(7H)-one]",6.72,5.86,6.42,6.85,6.37
"COc1c(C)cnc(CN2C(=O)/C(=C\c3cc(C(=O)NCCO)c[nH]3)c3c(Cl)nc(N)nc32)c1C [III-18, (Z)-5-((2-Amino-4-chloro-7-((4-methoxy-3,5-dimethylpyridin-2-yl)methyl)-6-oxo-6,7-dihydro-5H-pyrrolo[2,3-d]pyrimidin-5-ylidene)methyl)-N-(2-hydroxyethyl)-1H-pyrrole-3-carboxamide]",6.44,< 6.30,6.96,7.52,7.52
"COc1c(C)cnc(CN2C(=O)/C(=C\c3cc(C(=O)N(CCO)CCO)c[nH]3)c3c(Cl)nc(N)nc32)c1C [III-27, (Z)-5-((2-Amino-4-chloro-7-((4-methoxy-3,5-dimethylpyridin-2-yl)methyl)-6-oxo-6,7-dihydro-5H-pyrrolo[2,3-d]pyrimidin-5-ylidene)methyl)-N,N-bis(2-hydroxyethyl)-1H-pyrrole-3-carboxamide]",6.89,6.48,6.89,7.30,7.10

# These reach a higher pIC50 [1]. Values come first.
pIC50 [1],SMILES,pIC50 (MCF-7),pIC50 (HT29),pIC50 (SKBR-3),pIC50 (BT474)
7.05,"COc1c(C)cnc(CN2C(=O)/C(=C\c3ncc[nH]3)c3c(Cl)nc(N)nc32)c1C [III-3, 2-Amino-4-chloro-5-[1-(1H-imidazol-2-yl)-meth-(Z)-ylidene]-7-(4-methoxy-3,5-dimethyl-pyridin-2-ylmethyl)-5,7-dihydro-pyrrolo[2,3-d]pyrimidin-6-one]",7.00,7.15,7.40,7.22
7.52,"COc1c(C)cnc(CN2C(=O)/C(=C\c3cc(C(=O)NCCN4CCOCC4)c[nH]3)c3c(Cl)nc(N)nc32)c1C [III-16, (Z)-5-((2-Amino-4-chloro-7-((4-methoxy-3,5-dimethylpyridin-2-yl)methyl)-6-oxo-6,7-dihydro-5H-pyrrolo[2,3-d]pyrimidin-5-ylidene)methyl)-N-(2-morpholinoethyl)-1H-pyrrole-3-carboxamide]",7.00,7.30,7.70,8.00
8.00,"CCN(CC)CCNC(=O)c1c[nH]c(/C=C2\C(=O)N(Cc3ncc(C)c(OC)c3C)c3nc(N)nc(Cl)c32)c1 [III-19, (Z)-5-((2-Amino-4-chloro-7-((4-methoxy-3,5-dimethylpyridin-2-yl)methyl)-6-oxo-6,7-dihydro-5H-pyrrolo[2,3-d]pyrimidin-5-ylidene)methyl)-N-(2-(diethylamino)ethyl)-1H-pyrrole-3-carboxamide]",7.15,8.00,9.00,9.15
7.22,"COc1c(C)cnc(CN2C(=O)/C(=C\c3cc(C(=O)NCCNC(C)C)c[nH]3)c3c(Cl)nc(N)nc32)c1C [III-21, (Z)-5-((2-Amino-4-chloro-7-((4-methoxy-3,5-dimethylpyridin-2-yl)methyl)-6-oxo-6,7-dihydro-5H-pyrrolo[2,3-d]pyrimidin-5-ylidene)methyl)-N-(2-(isopropylamino)ethyl)-1H-pyrrole-3-carboxamide]",6.82,7.22,8.40,8.00
7.10,"COc1c(C)cnc(CN2C(=O)/C(=C\c3cc(C(=O)NCC(O)CO)c[nH]3)c3c(Cl)nc(N)nc32)c1C (centres unmarked) [III-22, (Z)-5-((2-Amino-4-chloro-7-((4-methoxy-3,5-dimethylpyridin-2-yl)methyl)-6-oxo-6,7-dihydro-5H-pyrrolo[2,3-d]pyrimidin-5-ylidene)methyl)-N-(2,3-dihydroxypropyl)-1H-pyrrole-3-carboxamide]",6.40,6.44,7.10,6.96
8.30,"COc1c(C)cnc(CN2C(=O)/C(=C\c3cc(C(=O)NCCN4CCCC4)c[nH]3)c3c(Cl)nc(N)nc32)c1C [III-26, (Z)-5-((2-Amino-4-chloro-7-((4-methoxy-3,5-dimethylpyridin-2-yl)methyl)-6-oxo-6,7-dihydro-5H-pyrrolo[2,3-d]pyrimidin-5-ylidene)methyl)-N-(2-(pyrrolidin-1-yl)ethyl)-1H-pyrrole-3-carboxamide]",7.52,9.22,> 9.70,9.00
6.96,"COc1c(C)cnc(CN2C(=O)/C(=C\c3cc(C(=O)NCCCN4CCCC4)c[nH]3)c3c(Cl)nc(N)nc32)c1C [III-28, (Z)-5-((2-Amino-4-chloro-7-((4-methoxy-3,5-dimethylpyridin-2-yl)methyl)-6-oxo-6,7-dihydro-5H-pyrrolo[2,3-d]pyrimidin-5-ylidene)methyl)-N-(3-(pyrrolidin-1-yl)propyl)-1H-pyrrole-3-carboxamide]",6.05,7.30,7.40,7.70
7.30,"COc1c(C)cnc(CN2C(=O)/C(=C\c3cc(C(=O)NCCN(CCO)CCO)c[nH]3)c3c(Cl)nc(N)nc32)c1C [III-30, (Z)-5-((2-Amino-4-chloro-7-((4-methoxy-3,5-dimethylpyridin-2-yl)methyl)-6-oxo-6,7-dihydro-5H-pyrrolo[2,3-d]pyrimidin-5-ylidene)methyl)-N-(2-(bis(2-hydroxyethyl)amino)ethyl)-1H-pyrrole-3-carboxamide]",6.17,6.68,7.70,7.15
